Several values for one entry are separate records, joined by “and”; a condition that tells them apart may be missing. Equal entries are not always repeated. Where two headings read alike, the source gives them in different places.
What was measured:
[1] = Safety, tolerability and post-treatment menstruation cycles, Example 2
Text: Menstruation cycle length was not influenced by the treatment. […] Sizes of right and left ovary differed slightly for each subject, but no clinically relevant changes were identified by the gynaecologists.

STS [2] = experiment: Functional biomarkers of STS activity (E1-S to E1 and DHEA-S to DHEA ratios), Example 2; assay type: in vivo, human
Description: (§1) Hormone profiles were determined as described in Example 1.
As described before, STS converts sulphate precursors of estrogens.

E2 and P4; T and D4A = experiment: Hormone profiles (E2, P4, T, D4A), Example 2; assay type: in vivo, human
Description: as §1

[3] = target: T1, STS activity in Peripheral Blood Mononuclear Cells (PBMCs) (Homo sapiens, UniProt P08842); experiment: STS inhibition in PBMCs, loading and maintenance phase, Example 4; assay type: in vivo; conditions: concomitant NETA 5 mg daily, patients
T1 construct: Pharmacodynamic properties were investigated by assessment of the STS activity in PBMCs; endogenous in cells; host or cells: peripheral blood mononuclear cells (PBMCs) of dosed women
T1 sequence (P08842 22-583): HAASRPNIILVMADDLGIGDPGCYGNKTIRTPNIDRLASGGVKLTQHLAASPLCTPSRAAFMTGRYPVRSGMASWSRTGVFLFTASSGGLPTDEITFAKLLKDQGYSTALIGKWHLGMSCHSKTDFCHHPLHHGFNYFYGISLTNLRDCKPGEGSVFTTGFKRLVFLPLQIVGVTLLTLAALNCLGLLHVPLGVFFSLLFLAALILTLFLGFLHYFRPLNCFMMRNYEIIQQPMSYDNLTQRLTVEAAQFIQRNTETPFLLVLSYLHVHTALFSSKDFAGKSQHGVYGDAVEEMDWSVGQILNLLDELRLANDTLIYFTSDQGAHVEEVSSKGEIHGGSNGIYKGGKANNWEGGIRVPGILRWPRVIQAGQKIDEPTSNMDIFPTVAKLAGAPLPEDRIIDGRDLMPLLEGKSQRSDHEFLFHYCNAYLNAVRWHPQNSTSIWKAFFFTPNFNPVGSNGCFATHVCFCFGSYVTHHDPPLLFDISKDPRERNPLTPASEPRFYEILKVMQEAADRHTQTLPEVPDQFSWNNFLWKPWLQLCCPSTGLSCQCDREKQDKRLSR
Text: The study is multicentre, randomised, two-arm, parallel group, double-blind, placebo controlled where eligible subjects were randomised on study day 1 in a 1:1 ratio into treatment group A or B between day 1 and day 4 of the menstrual bleeding.
The baseline is established in terms of endometriosis profile regarding pelvic pain, dysmenorrhea, dyspaneuria and bleeding pattern and those parameters are followed during the treatment. During the loading phase the subjects are monitored on day 7, day 21 and on week 4 and during the maintenance phase monthly on week 8, week 12 and week 16.

[4] = Safety, tolerability and ovarian cycle parameters, Example 1
Description: (§2) Treatment was started within 72 hours after the beginning of menstrual bleeding.
(§3) Ovarian and endometrium transvaginal ultrasounds throughout the study (Part A and B) and an endometrial biopsy (Part B only) were performed.

[5] = target: T2, Steroid Sulfatase in PBMCs (Homo sapiens, UniProt P08842); experiment: STS activity in PBMCs, Example 1 (radio scintillation assay); assay type: in vivo; conditions: for Emax: read-out: Emax (%) maximal inhibition of Steroid Sulfatase in PBMCs, Mean (SD); for STS inhibition in PBMCs: single dose 4 mg E2MATE
T2 construct: Pharmacodynamic properties were investigated by assessment of the STS activity in PBMCs; endogenous in cells; host or cells: peripheral blood mononuclear cells (PBMCs) of dosed women
T2 sequence (P08842 22-583): T1 sequence (P08842 22-583)
Description: as §2
The active doses tested were 0.25 mg (1st cohort), 1 mg, 4 mg and 8 mg.
The active doses tested were 0.25 mg, 1 mg and 4 mg.
as §3
(§4) Pharmacodynamic properties were investigated by assessment of the STS activity in PBMCs and by measurement of the serum hormonal profile comprising the ratio of E1-S to E1 and DHEA-S to DHEA. […] Hormone profiles were analysed using commercially available ELISA or RIA kits.

[6] = tested on: endometriosis-like lesion; conditions: daily oral dose of 0.5 or 1 mg/kg for 21 days, cited from earlier work
STS activity in PBMCs = target: T3, STS activity in PBMCs (Homo sapiens, UniProt P08842); experiment: STS activity in PBMCs, Example 2 (LC-MS/MS); assay type: in vivo; conditions: E2MATE 4 mg weekly and/or NETA 10 mg daily for 4 weeks
T3 construct: Pharmacodynamic properties were investigated by assessment of the STS activity in PBMCs; endogenous in cells; host or cells: peripheral blood mononuclear cells (PBMCs) of dosed women
T3 sequence (P08842 22-583): T1 sequence (P08842 22-583)
Description: (§5) STS activity was determined by spiking specimens with labelled E1-S and by measuring its conversion to E1 per gram protein under standardized incubation conditions using LC-MS/MS. Protein concentration was evaluated with a validated colorimetric assay (Bradford method).

[7] = target: T4, Steroid Sulfatase in endometrium (Homo sapiens, UniProt P08842); experiment: STS activity in endometrium, Example 2 (LC-MS/MS); assay type: in vivo
T4 construct: from tissue; host or cells: endometrium (biopsies) of dosed women
T4 sequence (P08842 22-583): T1 sequence (P08842 22-583)
Description: as §5

STS [8] = experiment: E1-S to E1 and DHEA-S to DHEA ratios, Example 1; assay type: in vivo, human; conditions: multiple doses 0.25, 1, 4 mg weekly x4
Description: as §4

[9] = Pharmacokinetic model: accumulation of E2MATE+EMATE, Example 3; set-up: species or system human
Description: As shown on FIG. 2, the accumulation ratio (Racc) based on the accumulation between two doses during one week time could be calculated. […] This could be achieved for example by the administration of 1 mg every 3 days or 2 mg per week (FIG. 2B).

[10] = NETA treatment period, days 8 to 29
[11] = multiple dose 0.25 mg E2MATE weekly for four weeks
[12] = multiple dose 1 mg E2MATE weekly for four weeks
[13] = multiple dose 4 mg E2MATE weekly for four weeks

## C[C@]12CC[C@@H]3c4ccc(OS(N)(=O)=O)cc4CC[C@H]3[C@@H]1CC[C@@H]2O [E2MATE, Estradiol-3-o-sulfamate]
[1]; in vivo
  ovarian size: no apparent effect
[1]; multiple doses for 4 weeks, healthy pre-menopausal female subjects
  tolerability: well tolerated
STS [2]; Day 1
  Baseline relative change of the DHEA-S/DHEA [%]: 0%
  Baseline relative change of the E1-S/E1 [%]: 0%
STS [2]; Day 8
  Baseline relative change of the DHEA-S/DHEA [%]: 133%
  Baseline relative change of the E1-S/E1 [%]: 208%
STS [2]; Day 15
  Baseline relative change of the DHEA-S/DHEA [%]: 116%
  Baseline relative change of the E1-S/E1 [%]: 282%
STS [2]; Day 22
  Baseline relative change of the DHEA-S/DHEA [%]: 113%
  Baseline relative change of the E1-S/E1 [%]: 218%
STS [2]; Day 29
  Baseline relative change of the DHEA-S/DHEA [%]: 148%
  Baseline relative change of the E1-S/E1 [%]: 194%
STS [2]; Day 57
  Baseline relative change of the DHEA-S/DHEA [%]: 195%
  Baseline relative change of the E1-S/E1 [%]: 218%
STS [2]; Day 85
  Baseline relative change of the DHEA-S/DHEA [%]: 232%
  Baseline relative change of the E1-S/E1 [%]: 243%
STS [2]; Day 113
  Baseline relative change of the DHEA-S/DHEA [%]: 175%
  Baseline relative change of the E1-S/E1 [%]: 400%
STS [2]; [10]
  baseline relative mean increases of the DHEA-S to DHEA ratio (up to): up to 265%
  baseline relative mean increases of the E1-S to E1 ratio (up to): up to 282%
E2 and P4; T and D4A; first cycle up to Day 29, normal increase on Day 43
  mean concentration-time profiles in E2 and P4: Normal mean concentration-time profiles
E2 and P4; T and D4A; multiple dose administration
  mean concentration-time profiles for T and D4A: No relevant differences
[3]; Day 28, 16 mg over 4 weeks
  STS inhibition in PBMCs after the loading phase: almost complete
[3]; Day 56, 2 mg/week
  STS inhibition in PBMCs at maintenance dose: almost entire
[4]; in vivo
  cycle length: not affected
  endometrial thickness assessed by TVUS, between treatment groups: no clinically relevant differences
  number of measurable follicles / subjects with follicles >10 mm: No clinically relevant effects
[4]; multiple doses of 0.25, 1 mg and 4 mg weekly x4
  tolerability: well tolerated
[4]; single doses of 0.25 mg, 1 mg, 4 mg and 8 mg
  tolerability: well tolerated
[5]; [11]
  AVG (%) average inhibition of Steroid Sulfatase in PBMCs, Mean (SD): 22.7 (16.5) %
  Emax: 42%
[5]; [12]
  AVG (%) average inhibition of Steroid Sulfatase in PBMCs, Mean (SD): 43.5 (23.2) %
  Emax: 79.5%
[5]; [13]
  AVG (%) average inhibition of Steroid Sulfatase in PBMCs, Mean (SD): 88.4 (9.5) %
  Emax: 100%
[5]; po, single oral dose 0.25 mg E2MATE
  Emax: 59.5%
[5]; po, single oral dose 1 mg E2MATE
  Emax: 58.7%
[5]; po, single oral dose 4 mg E2MATE
  Emax: 99.5%
[5]; Day 0 of cycle 2 (approximately 56 days after dosing)
  STS inhibition in PBMCs: 82%
[5]; Day 3
  STS inhibition in PBMCs: 96%
[5]; single oral dose 0.25 mg E2MATE, Day 1 until EOS
  AVG (%) average inhibition of Steroid Sulfatase in PBMCs, Mean (SD): 23.2 (14.6) %
[5]; single oral dose 1 mg E2MATE, Day 1 until EOS
  AVG (%) average inhibition of Steroid Sulfatase in PBMCs, Mean (SD): 25.2 (10.6) %
[6]; end of treatment
  lesion weight and size: decreased
[6]
  histology of the uterus (indicative of some estrogenic activity): some stromal oedema was observed
  number of lesions: without a reduction
STS activity in PBMCs; Day 4
  mean percentage inhibition of STS activity in PBMCs: 90%
STS activity in PBMCs; Day 113
  percentage inhibition of STS activity in PBMCs: 37%
STS activity in PBMCs
  average inhibition of STS activity in PBMCs: 82.6%
  mean maximal inhibition of STS activity in PBMCs: 94.7%
[7]; E2MATE 4 mg weekly and/or NETA 10 mg daily for 4 weeks
  AVG [%] average inhibition of Steroid Sulfatase in endometrium (average effect over time (AUC)): 66.6 (2.7) % and 66.60%
[7]; end of treatment, between Day 25 and Day 29
  STS inhibition [%] in endometrium: 91% and 90.66%
[7]; read-out: Emax [%] maximal inhibition of Steroid Sulfatase in endometrium
  Emax: 91%
[7]; third biopsy day, 1 month after the end of the treatment (approximately 50 days after dosing)
  STS inhibition [%] in endometrium, After treatment: 88% and 87.50%
STS [8]
  turn-over of E1-S to E1: dose-dependent decreased turn-over
[9]; Cmin 504 h versus Cmin 168 h, 4 mg/week during 4 weeks
  accumulation ratio (Racc) of E2MATE+EMATE: about 2.7
[9]; after loading 4 mg/week during 4 weeks
  E2MATE dose necessary to maintain the blood levels reached after the loading period: 0.36 mg/day

Source: patent US20150065470A1, “Steroid Sulfatase Inhibitor Regimen for the Treatment of Endometriosis” (priority 2012, published 2015)
